pKi: −log10 of the molar value. Where two headings read alike, the source gives them in different places.

Among the data in patent US6949542B2, “Dihydro-benzo[b][1,4]diazepin-2-one derivatives” (Hoffman-La Roche Inc., priority 2002, dated 2005) are melting point and Ki values, retold here.

One data set has as its target T1, rat mGlu2 receptor (Rattus norvegicus, UniProt P31421).
T1 construct: expressed in transfected cells; vector pcD1mGR2
Put plainly: [3H]-LY354740 binding on mGlu2 transfected CHO cell membranes.

The mark [1] stands for this setting: inhibition of 10 nM [3H]-LY354740 binding, mGlu2 transfected CHO cell membranes, room temperature, 1 hour, read-out: Ki mGlu2.

T1 sequence (P31421 19-872): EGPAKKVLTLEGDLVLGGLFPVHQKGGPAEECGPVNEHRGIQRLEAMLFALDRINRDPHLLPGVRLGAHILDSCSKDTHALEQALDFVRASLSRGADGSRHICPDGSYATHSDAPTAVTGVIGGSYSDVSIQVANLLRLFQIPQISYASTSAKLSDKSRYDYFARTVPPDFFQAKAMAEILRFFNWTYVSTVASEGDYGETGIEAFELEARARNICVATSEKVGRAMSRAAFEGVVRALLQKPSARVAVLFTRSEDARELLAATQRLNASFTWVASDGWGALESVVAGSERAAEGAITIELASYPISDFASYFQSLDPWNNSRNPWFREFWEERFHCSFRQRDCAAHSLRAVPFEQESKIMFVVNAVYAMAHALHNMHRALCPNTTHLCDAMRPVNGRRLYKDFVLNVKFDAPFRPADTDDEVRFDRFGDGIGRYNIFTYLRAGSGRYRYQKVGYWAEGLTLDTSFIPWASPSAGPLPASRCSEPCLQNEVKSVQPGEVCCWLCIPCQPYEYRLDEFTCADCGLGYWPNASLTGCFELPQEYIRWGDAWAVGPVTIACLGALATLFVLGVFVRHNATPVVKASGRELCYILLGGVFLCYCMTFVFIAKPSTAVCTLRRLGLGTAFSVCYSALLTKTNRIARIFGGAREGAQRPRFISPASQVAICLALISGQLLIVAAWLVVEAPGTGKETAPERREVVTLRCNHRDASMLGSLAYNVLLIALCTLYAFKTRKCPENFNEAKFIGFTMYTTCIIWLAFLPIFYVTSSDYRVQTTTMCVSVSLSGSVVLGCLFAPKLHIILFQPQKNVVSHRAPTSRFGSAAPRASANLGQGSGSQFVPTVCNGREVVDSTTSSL
Method for rat mGlu2 receptor: [^3H]-LY354740 Binding on mGlu2 Transfected CHO Cell Membranes
Transfection and Cell Culture
The cells were maintained in Dulbecco's Modified Eagle medium with reduced L-glutamine (2 mM final concentration) and 10% dialysed foetal calf serum from Gibco BRL (Basel, Switzerland).
Cells, cultured as above, were harvested and washed three times with cold PBS and frozen at −80° C. The pellet was resuspended in cold 20 mM HEPES-NaOH buffer containing 10 mM EDTA (pH 7.4), and homogenised with a polytron (Kinematica, AG, Littau, Switzerland) for 10 s at 10 000 rpm. After centrifugation for 30 min. at 4° C., the pellet was washed once with the same buffer, and once with cold 20 mM HEPES-NaOH buffer containing 0.1 mM EDTA, (pH 7.4). Protein content was measured using the Pierce method (Socochim, Lausanne, Switzerland) using bovine serum albumin as standard.
After thawing, the membranes were resuspended in cold 50 mM Tris-HCl buffer containing 2 mM MgCl2 and 2 mM CaCl2, (pH 7) (binding buffer). The final concentration of the membranes in the assays was 25 μg protein/ml. Inhibition experiments were performed with membranes incubated with 10 nM [^3H]-LY354740 at room temperature, for 1 hour, in presence of various concentrations of the compound to be tested. Following the incubations, membranes were filtered onto Whatmann GF/C glass fiber filters and washed 5 times with cold binding buffer. Non specific binding was measured in the presence of 10 μM DCG IV. After transfer of the filters into plastic vials containing 10 ml of Ultima-gold scintillation fluid (Packard, Zürich, Switzerland), the radioactivity was measured by liquid scintillation in a Tri-Carb 2500 TR counter (Packard, Zürich, Switzerland).
The inhibition curves were fitted with a four parameter logistic equation giving IC50 values, and Hill coefficients.

For `Cc1cc2c(cc1Cl)NC(=O)CC(c1cccc(-c3ccnnc3)c1)=N2` [Example 48, 8-Chloro-7-methyl-4-(3-pyridazin-4-yl-phenyl)-1,3-dihydro-benzo[b][1,4]diazepin-2-one], the melting point was 240 °C (dec.). Further, the pKi on rat mGlu2 receptor (setting [1]) was 8.03.

`CC(C)CNc1cc2c(cc1C(F)(F)F)NC(=O)CC(c1cccc(-c3ccncc3)c1)=N2` [Example 63, 7-Isobutylamino-4-(3-pyridin-4-yl-phenyl)-8-trifluoromethyl-1,3-dihydro-benzo[b][1,4]diazepin-2-one] had a melting point of 198 °C. Also, the pKi at rat mGlu2 receptor (setting [1]) is 7.72.

As for `Cc1cc(-c2cccc(C3=Nc4cc(N(C)C)c(C(F)(F)F)cc4NC(=O)C3)c2)ccn1` [Example 78, 7-Dimethylamino-4-[3-(2-methyl-pyridin-4-yl)-phenyl]-8-trifluoromethyl-1,3-dihydro benzo[b][1,4]diazepin-2-one], the melting point was determined as 225 °C. Also, the negative-log Ki (pKi) at rat mGlu2 receptor (setting [1]) was 8.89.

In turn, `CCCN(C)c1cc2c(cc1C(F)(F)F)NC(=O)CC(c1cccc(-c3ccnc(C)c3)c1)=N2` [Example 80, 7-(Methyl-propyl-amino)-4-[3-(2-methyl-pyridin-4-yl)-phenyl]-8-trifluoromethyl-1,3-dihydro benzo[b][1,4]diazepin-2-one] returned a melting point of 192 °C. The pKi on rat mGlu2 receptor (setting [1]) is 8.26.

The compound `Cc1cc2c(cc1C(F)(F)F)NC(=O)CC(c1cccc(-c3cnccn3)c1)=N2` [Example 87, 7-Methyl-4-(3-pyrazin-2-yl-phenyl)-8-trifluoromethyl-1,3-dihydro-benzo[b][1,4]diazepin-2-one] displayed a melting point of 237 °C. Moreover, the pKi at rat mGlu2 receptor (setting [1]) was 8.00.

In turn, `O=C1CC(c2cccc(-c3cncnc3)c2)=Nc2cc(Cl)c(Cl)cc2N1` [Example 97, 7,8-Dichloro-4-(3-pyrimidin-5-yl-phenyl)-1,3-dihydro-benzo[b][1,4]diazepin-2-one] came in with a melting point of 272 °C. Also, the pKi on rat mGlu2 receptor was 7.97.

In turn, `Cc1cc2c(cc1Cl)NC(=O)CC(c1cccc(-c3cncnc3)c1)=N2` [Example 104, 8-Chloro-7-methyl-4-(3-pyrimidin-5-yl-phenyl)-1,3-dihydro-benzo[b][1,4]diazepin-2-one] showed a melting point of 248 °C. Moreover, on rat mGlu2 receptor (setting [1]), the pKi was 8.10.

On to `O=C1CC(c2cccc(-c3cncnc3)c2)=Nc2ccc(-c3ccccc3F)cc2N1` [Example 105, 8-(2-Fluoro-phenyl)-4-(3-pyrimidin-5-yl-phenyl)-1,3-dihydro-benzo[b][1,4]diazepin-2-one], for which the melting point amounted to 223 °C. At rat mGlu2 receptor (setting [1]), the pKi is 8.21.

The compound `O=C1CC(c2cccc(-c3cnccn3)c2)=Nc2ccc(-n3cccc3)cc2N1` [Example 109, 4-(3-Pyrazin-2-yl-phenyl)-8-pyrrol-1-yl-1,3-dihydro-benzo[b][1,4]diazepin-2-one] gave a melting point of 214 °C. The pKi at rat mGlu2 receptor (setting [1]) is 8.26.

As for `Cc1cncc(-c2cccc(C3=Nc4cc(C)c(C(F)(F)F)cc4NC(=O)C3)c2)n1` [Example 129, 7-Methyl-4-[3-(6-methyl-pyrazin-2-yl)-phenyl]-8-trifluoromethyl-1,3-dihydro-benzo[b][1,4]diazepin-2-one], the melting point came out at 233 °C. For the same compound, the pKi on rat mGlu2 receptor (setting [1]) is 8.51.

Compound `Cc1cc(-c2cccc(C3=Nc4cc(OCC(F)(F)F)c(C(F)(F)F)cc4NC(=O)C3)c2)c(C)cn1` [Example 138, 4-[3-(2,5-Dimethyl-pyridin-4-yl)-phenyl]-7-(2,2,2-trifluoro-ethoxy)-8-trifluoromethyl-1,3-dihydro-benzo[b][1,4]diazepin-2-one] had a melting point of 202 °C. The pKi at rat mGlu2 receptor (setting [1]) is 8.44.

With `CCc1cnc(C)cc1-c1cccc(C2=Nc3cc(C)c(Cl)cc3NC(=O)C2)c1` [Example 147, 8-Chloro-4-[3-(5-ethyl-2-methyl-pyridin-4-yl)-phenyl]-7-methyl-1,3-dihydro-benzo[b][1,4]diazepin-2-one], the melting point worked out at 195 °C. On rat mGlu2 receptor (setting [1]), the pKi is 8.35.

Compound `Cc1cccc(-c2cccc(C3=Nc4cc(N(C)C)c(C(F)(F)F)cc4NC(=O)C3)c2)n1` [Example 160, 7-Dimethylamino-4-[3-(6-methyl-pyridin-2-yl)-phenyl]-8-trifluoromethyl-1,3-dihydro-benzo[b][1,4]diazepin-2-one] yielded a melting point of 195 °C. In addition, the negative-log Ki (pKi) on rat mGlu2 receptor (setting [1]) is 7.73.

The compound `O=C1CC(c2cccc(-c3cccnc3)c2)=Nc2ccc(OCC(F)(F)F)cc2N1` [Example 197, 4-(3-Pyridin-3-yl-phenyl)-8-(2,2,2-trifluoro-ethoxy)-1,3-dihydro-benzo[b][1,4]diazepin-2-one] gave a melting point of 156 °C. Further, the pKi on rat mGlu2 receptor (setting [1]) is 8.00.

The compound `N#Cc1cc(-c2cccc(C3=Nc4ccc(C(F)(F)F)cc4NC(=O)C3)c2)ccn1` [Example 198, 4-[3-(4-Oxo-7-trifluoromethyl-4,5-dihydro-3H-benzo[b][1,4]diazepin-2-yl)-phenyl]-pyridine-2-carbonitrile] returned a melting point of 239 to 240 °C. The negative-log Ki (pKi) on rat mGlu2 receptor (setting [1]) was 7.63.

Consider `COCCOc1cc2c(cc1C(F)(F)F)NC(=O)CC(c1cccc(-c3ccnc(C#N)c3)c1)=N2` [Example 209, 4-{3-[8-(2-Methoxy-ethoxy)-4-oxo-7-trifluoromethyl-4,5-dihydro-3H-benzo[b][1,4]diazepin-2-yl]-phenyl}-pyridine-2-carbonitrile], for which the melting point was in the range of 212 to 213 °C. Moreover, the pKi at rat mGlu2 receptor (setting [1]) is 7.89.

Turning to `Cc1cc(C2CC2)ncc1-c1cccc(C2=Nc3cc(C)c(C(F)(F)F)cc3NC(=O)C2)c1` [Example 246, 4-[3-(6-Cyclopropyl-4-methyl-pyridin-3-yl)-phenyl]-7-methyl-8-trifluoromethyl-1,3-dihydro-benzo[b][1,4]diazepin-2-one], the melting point stood at 195 °C. Also, the pKi at rat mGlu2 receptor (setting [1]) is 7.77.

Take `Cc1nccc(-c2cccc(C3=Nc4cc(N(C)C)c(C(F)(F)F)cc4NC(=O)C3)c2)n1` [Example 303, 7-Dimethylamino-4-[3-(2-methyl-pyrimidin-4-yl)-phenyl]-8-trifluoromethyl-1,3-dihydro-benzo[b][1,4]diazepin-2-one]: the melting point was in the range of 211 to 212 °C. Besides, the pKi on rat mGlu2 receptor (setting [1]) was 7.35.

The compound `Cc1cc(-c2cccc(C3=Nc4cc(C)c(C(F)(F)F)cc4NC(=O)C3)c2)nc(NCCO)n1` [Example 322, 4-{3-[2-(2-Hydroxy-ethylamino)-6-methyl-pyrimidin-4-yl]-phenyl}-7-methyl-8-trifluoromethyl-1,3-dihydro-benzo[b][1,4]diazepin-2-one] had a melting point of 228 to 230 °C. The pKi on rat mGlu2 receptor (setting [1]) is 8.40.

In turn, `COCCNc1nc(C)cc(-c2cccc(C3=Nc4cc(N(C)C)c(C(F)(F)F)cc4NC(=O)C3)c2)n1` [Example 326, 7-Dimethylamino-4-{3-[2-(2-methoxy-ethylamino)-6-methyl-pyrimidin-4-yl]-phenyl}-8-trifluoromethyl-1,3-dihydro-benzo[b][1,4]diazepin-2-one] yielded a melting point of 200 to 203 °C. Besides, the pKi on rat mGlu2 receptor (setting [1]) is 8.10.

In turn, `Cc1cc(-c2cccc(C3=Nc4cc(C)c(Cl)cc4NC(=O)C3)c2)nc(N2CCOCC2)n1` [Example 327, 8-Chloro-7-methyl-4-[3-(6-methyl-2-morpholin-4-yl-pyrimidin-4-yl)-phenyl]-1,3-dihydro-benzo[b][1,4]diazepin-2-one] returned a melting point of 252 to 256 °C. Further, the pKi at rat mGlu2 receptor (setting [1]) was 7.92.

Turning to `O=C1CC(c2cccc(-c3ccc[n+]([O-])c3)c2)=Nc2cc(OCC(F)(F)F)c(C(F)(F)F)cc2N1` [Example 357, 4-[3-(1-Oxy-pyridin-3-yl)-phenyl]-7-(2,2,2-trifluoro-ethoxy)-8-trifluoromethyl-1,3-dihydro-benzo[b][1,4]diazepin-2-one], the melting point was determined as 226 °C. Besides, the pKi at rat mGlu2 receptor (setting [1]) was 8.21.

`CCOc1cc2c(cc1C(F)(F)F)NC(=O)CC(c1cccc(-c3cc[n+]([O-])c(C)c3)c1)=N2` [Example 359, 7-Ethoxy-4-[3-(2-methyl-1-oxy-pyridin-4-yl)-phenyl]-8-trifluoromethyl-1,3-dihydro-benzo[b][1,4]diazepin-2-one] yielded a melting point of 227 °C. The pKi at rat mGlu2 receptor (setting [1]) is 7.58.

On to `Cc1cc(-c2cccc(C3=Nc4cc(Cl)c(Cl)cc4NC(=O)C3)c2)cc(C)[n+]1[O-]` [Example 376, 7,8-Dichloro-4-[3-(2,6-dimethyl-1-oxy-pyridin-4-yl)-phenyl]-1,3-dihydro-benzo[b][1,4]diazepin-2-one], for which the melting point was determined as 225 °C. Besides, at rat mGlu2 receptor (setting [1]), the pKi is 7.78.

`Cc1cc2c(cc1C(F)(F)F)NC(=O)CC(c1cccc(-c3ccnc(N4CCOCC4)c3)c1)=N2` [Example 387, 7-Methyl-4-[3-(2-morpholin-4-yl-pyridin-4-yl)-phenyl]-8-trifluoromethyl-1,3-dihydro-benzo[b][1,4]diazepin-2-one] displayed a melting point of 240 to 242 °C. Besides, the pKi on rat mGlu2 receptor was 7.84.

`O=C1CC(c2cccc(-c3ccnc(N4CCCC4)c3)c2)=Nc2cc(OCC(F)(F)F)c(C(F)(F)F)cc2N1` [Example 391, 4-[3-(2-Pyrrolidin-1-yl-pyridin-4-yl)-phenyl]-7-(2,2,2-trifluoro-ethoxy)-8-trifluoromethyl-1,3-dihydro-benzo[b][1,4]diazepin-2-one] registered a melting point of 165 °C. Moreover, the pKi at rat mGlu2 receptor (setting [1]) was 8.10.

`Cc1cc(-c2cccc(C3=Nc4cc(N(C)CC(C)C)c(Cl)cc4NC(=O)C3)c2)cc(C)n1` [Example 410, 8-Chloro-4-[3-(2,6-dimethyl-pyridin-4-yl)-phenyl]-7-(isobutyl-methyl-amino)-1,3-dihydro-benzo[b][1,4]diazepin-2-one] had a melting point of 229 °C. Moreover, the negative-log Ki (pKi) at rat mGlu2 receptor (setting [1]) was 8.49.

Usually melting point stands for the temperature, or range, at which the solid turns liquid. The term pKi denotes the Ki on a negative log10 scale, so that one unit is a factor of ten.
